Measured values published in patent US9382244B2, “7-azaindole-2,7-naphthyridine derivative for the treatment of tumours” (Merck Patent GmbH, priority 2012, dated 2016).

Key:
[1] = system: TGF-beta-mediated growth inhibition, lung epithelial cell line Mv1Lu; experiment: Cellular TGF-beta assay: elimination of TGF-beta-mediated growth inhibition; assay type: cell-based
Procedure: In-Vitro (Enzyme) Assay for Determination of the Efficacy of the Inhibitors of the Inhibition of TGF-Beta-Mediated Effects
As an example, the ability of the inhibitors to eliminate TGF-beta-mediated growth inhibition is tested.
Cells of the lung epithelial cell line Mv1Lu are sown in a defined cell density in a 96-well microtitre plate and cultivated overnight under standard conditions. Next day, the medium is replaced by medium which comprises 0.5% of FCS and 1 ng/ml of TGF-beta, and the test substances are added in defined concentrations, generally in the form of dilution series with 5-fold steps. The concentration of the solvent DMSO is constant at 0.5%. After a further two days, Crystal Violet staining of the cells is carried out. After extraction of the Crystal Violet from the fixed cells, the absorption is measured spectrophotometrically at 550 nm. It can be used as a quantitative measure of the adherent cells present and thus of the cell proliferation during the culture.

[2] = target: T1, TGF-beta kinase ALK5 (GST-ALK5) (Homo sapiens, UniProt P36897); experiment: Test for the inhibition of ALK-5 (flashplate kinase assay); assay type: biochemical; conditions: enzymatic; GST-ALK5, GST-SMAD2 substrate; read-out: IC50 [nM] [TGF-beta] enzym. ALK5
T1 sequence (P36897 34-503): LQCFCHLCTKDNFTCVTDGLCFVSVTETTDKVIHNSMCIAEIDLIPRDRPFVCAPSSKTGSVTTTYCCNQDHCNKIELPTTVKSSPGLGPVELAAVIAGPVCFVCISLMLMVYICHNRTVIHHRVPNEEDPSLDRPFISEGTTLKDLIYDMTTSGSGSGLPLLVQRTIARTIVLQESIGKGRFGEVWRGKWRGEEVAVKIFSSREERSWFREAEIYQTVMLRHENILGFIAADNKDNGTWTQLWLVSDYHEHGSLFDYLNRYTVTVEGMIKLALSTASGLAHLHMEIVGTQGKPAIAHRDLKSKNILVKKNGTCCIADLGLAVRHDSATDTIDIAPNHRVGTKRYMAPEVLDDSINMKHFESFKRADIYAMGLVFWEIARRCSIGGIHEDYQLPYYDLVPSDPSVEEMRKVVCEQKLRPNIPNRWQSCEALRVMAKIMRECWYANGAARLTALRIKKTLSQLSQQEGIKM
Procedure: Test for the Inhibition of ALK-5
The experimental batches are carried out in a flashplate system with 384 wells/microtitre plate.
In each case, 31.2 nM of GST-ALK5, 439 nM of GST-SMAD2 and 3 mM of ATP (with 0.3 μCi of 33P-ATP/well) in a total volume of 35 μl of buffer (20 mM HEPES, 10 mM MgCl2, 5 mM MnCl2, 1 mM DTT, 0.1% of BSA, pH 7.4) per well are incubated without or with test substance at 5 to 10 different concentrations at 30 C for 45 min. The reaction is stopped using 25 μl of 200 mM EDTA solution and filtered off with suction after 30 min at room temperature.
The wells are washed 3 times with 100 μl of 0.9% aqueous NaCl solution, and the residual radioactivity is measured in a TopCount instrument (Perkin-Elmer). The IC50 values are calculated using the RS1 software.
The radioactivity (decompositions per minute) of the blank value (no use of test substance in the presence of 100 nM staurosporine) is subtracted from all other radioactivity values. The controls (kinase activity without test substance) are set equal to 100 percent and all other radioactivity values (after subtracting the blank value) are expressed set in relation thereto (for example in % of the control).
IC50 values (concentration of the test substance at 50% inhibition) are determined with the aid of statistics programmes, such as, for example, RS1.

[3] = target: T2, Human ALK1 (Homo sapiens, UniProt P37023); experiment: Test for the inhibition of ALK-1; assay type: biochemical; conditions: Human ALK1, casein substrate, ATP 10 μM
T2 construct: purchased ALK1
Procedure: Test for the Inhibition of ALK-1
(Serine/threonine-protein kinase receptor R3, activin receptor-like kinase 1, ALK-1, TGF-B superfamily receptor type I, TSR-I, SKR3, ACVRLK1)
Substrate: Casein, 20 mg/ml

T2 sequence (P37023 22-503): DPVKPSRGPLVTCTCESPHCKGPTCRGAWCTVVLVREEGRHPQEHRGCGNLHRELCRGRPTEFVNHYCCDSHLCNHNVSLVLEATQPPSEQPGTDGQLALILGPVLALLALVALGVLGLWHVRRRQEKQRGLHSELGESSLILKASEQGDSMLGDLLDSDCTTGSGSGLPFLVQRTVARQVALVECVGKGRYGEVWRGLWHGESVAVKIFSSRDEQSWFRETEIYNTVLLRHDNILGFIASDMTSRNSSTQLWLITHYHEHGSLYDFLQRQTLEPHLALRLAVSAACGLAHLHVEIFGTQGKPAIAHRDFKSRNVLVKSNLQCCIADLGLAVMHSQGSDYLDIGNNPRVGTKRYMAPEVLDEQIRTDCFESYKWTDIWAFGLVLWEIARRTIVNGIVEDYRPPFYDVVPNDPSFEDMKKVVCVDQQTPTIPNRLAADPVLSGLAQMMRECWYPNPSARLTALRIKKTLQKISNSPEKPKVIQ

| SMILES | IC50 [1] [nM] | IC50 [2] [nM] | IC50 [3] [nM] |
| --- | --- | --- | --- |
| Cc1[nH]c2ncccc2c1-c1cnc(N)c2cnccc12 [4-(2-methyl-1H-pyrrolo[2,3-b]pyridin-3-yl)-2,7-naphthyridin-1-ylamine] | 28 | 4.6 | 79 |
| Cc1[nH]c2ncccc2c1-c1nccc2c(N)nccc12 [Compound A13] | 160 | 16 | 200 |
| Nc1ncc(-c2c[nH]c3ncccc23)c2ccncc12 [Compound A24] | 72 | 13 | – |
| Nc1nccc2c(-c3c[nH]c4ncccc34)nccc12 [Compound A32] | 770 | 43 | – |
